Biological target: T1, Nav1.7 (or SCN9A) channel (Homo sapiens, UniProt Q15858)
T1 construct: expressed in transfected cells
Assay: Nav1.7 (hSCN9A) block in HEK cells, PatchXpress 7000 automated electrophysiology, estimated IC50 (EIC50)
Format: cell-based
Settings: PatchXpress assay; HEK cells stably transfected with hSCN9A, voltage-clamped at V1/2 of inactivation
Procedure: The ability of the compounds of formula (I) to block the Nav1.7 (or SCN9A) channel were measured using the assay described below.
Human Embryonic Kidney (HEK) cells were transfected with an hSCN9A construct using lipofectamine reagent (Invitrogen), using standard techniques. Cells stably expressing the hSCN9A constructs were identified by their resistance to G-418 (400 μg/ml). Clones were screened for expression using the whole-cell voltage-clamp technique.
HEK cells stably transfected with hSCN9A were maintained in DMEM medium supplemented with 10% heat-inactivated fetal bovine serum and 400 μg/ml G-418 in an incubator at 37° C. with a humidified atmosphere of 10% CO2. For HTS, cells were harvested from flasks by trypsinization and replated in an appropriate multi-well plate (typically 96 or 384 wells/plate) such that confluence would be achieved within 24 hours of plating. For electrophysiological studies, cells were removed from the culture flask by brief trypsinization and re-plated at low density onto glass cover slips. Cells were typically used for electrophysiological experiments within 24 to 72 hours after plating.
HEK cells stably transfected with hSCN9A were viewed under Hoffman contrast optics and placed in front of an array of flow pipes emitting either control or compound-containing extracellular solutions. All compounds were dissolved in dimethyl sulfoxide to make 10 mM stock solutions, which were then diluted into extracellular solution to attain the final concentrations desired. […] The voltage-dependence of inactivation was determined by applying a series of depolarizing prepulses (8 sec long in 10 mV increments) from a negative holding potential. The voltage was then immediately stepped to 0 mV to assess the magnitude of the sodium current. Currents elicited at 0 mV were plotted as a function of prepulse potential to allow estimation of the voltage at which 50% of the channels were inactivated (midpoint of inactivation or V1/2). Compounds were tested for their ability to inhibit hSCN9A sodium channels by activating the channel with a 20 msec voltage step to 0 mV following an 8 second conditioning prepulse to the empirically determined V1/2. Compound effect (% inhibition) was determined by difference in current amplitude before and after application of test compounds. For ease of comparison, “estimated IC-50” (EIC50) values were calculated from single point electrophysiology data by the following equation, (tested concentration, uM) X (100-% inhibition/% inhibition). Inhibition values <20% and >80% were excluded from the calculation.
Electrophysiological assays were conducted with PatchXpress 7000 hardware and associated software (Molecular Devices Corp). All assay buffers and solutions were identical to those used in conventional whole-cell voltage clamp experiments described above. hSCN9A cells were grown as above to 50%-80% confluency and harvested by trypsinization. Trypsinized cells were washed and resuspended in extracellular buffer at a concentration of 1×10^6 cells/ml. The onboard liquid handling facility of the PatchXpress was used for dispensing cells and application of test compounds. Determination of the voltage midpoint of inactivation was as described for conventional whole-cell recordings. Cells were then voltage-clamped to the empirically determined V1/2 and current was activated by a 20 msec voltage step to 0 mV.
Compounds of the Examples were tested in the assays described above and found to have the Nav1.7 EIC50 (μM) values specified in the table below. All data are derived from the PatchXpress assay unless explicitly stated otherwise.

T1 sequence (Q15858 whole entry): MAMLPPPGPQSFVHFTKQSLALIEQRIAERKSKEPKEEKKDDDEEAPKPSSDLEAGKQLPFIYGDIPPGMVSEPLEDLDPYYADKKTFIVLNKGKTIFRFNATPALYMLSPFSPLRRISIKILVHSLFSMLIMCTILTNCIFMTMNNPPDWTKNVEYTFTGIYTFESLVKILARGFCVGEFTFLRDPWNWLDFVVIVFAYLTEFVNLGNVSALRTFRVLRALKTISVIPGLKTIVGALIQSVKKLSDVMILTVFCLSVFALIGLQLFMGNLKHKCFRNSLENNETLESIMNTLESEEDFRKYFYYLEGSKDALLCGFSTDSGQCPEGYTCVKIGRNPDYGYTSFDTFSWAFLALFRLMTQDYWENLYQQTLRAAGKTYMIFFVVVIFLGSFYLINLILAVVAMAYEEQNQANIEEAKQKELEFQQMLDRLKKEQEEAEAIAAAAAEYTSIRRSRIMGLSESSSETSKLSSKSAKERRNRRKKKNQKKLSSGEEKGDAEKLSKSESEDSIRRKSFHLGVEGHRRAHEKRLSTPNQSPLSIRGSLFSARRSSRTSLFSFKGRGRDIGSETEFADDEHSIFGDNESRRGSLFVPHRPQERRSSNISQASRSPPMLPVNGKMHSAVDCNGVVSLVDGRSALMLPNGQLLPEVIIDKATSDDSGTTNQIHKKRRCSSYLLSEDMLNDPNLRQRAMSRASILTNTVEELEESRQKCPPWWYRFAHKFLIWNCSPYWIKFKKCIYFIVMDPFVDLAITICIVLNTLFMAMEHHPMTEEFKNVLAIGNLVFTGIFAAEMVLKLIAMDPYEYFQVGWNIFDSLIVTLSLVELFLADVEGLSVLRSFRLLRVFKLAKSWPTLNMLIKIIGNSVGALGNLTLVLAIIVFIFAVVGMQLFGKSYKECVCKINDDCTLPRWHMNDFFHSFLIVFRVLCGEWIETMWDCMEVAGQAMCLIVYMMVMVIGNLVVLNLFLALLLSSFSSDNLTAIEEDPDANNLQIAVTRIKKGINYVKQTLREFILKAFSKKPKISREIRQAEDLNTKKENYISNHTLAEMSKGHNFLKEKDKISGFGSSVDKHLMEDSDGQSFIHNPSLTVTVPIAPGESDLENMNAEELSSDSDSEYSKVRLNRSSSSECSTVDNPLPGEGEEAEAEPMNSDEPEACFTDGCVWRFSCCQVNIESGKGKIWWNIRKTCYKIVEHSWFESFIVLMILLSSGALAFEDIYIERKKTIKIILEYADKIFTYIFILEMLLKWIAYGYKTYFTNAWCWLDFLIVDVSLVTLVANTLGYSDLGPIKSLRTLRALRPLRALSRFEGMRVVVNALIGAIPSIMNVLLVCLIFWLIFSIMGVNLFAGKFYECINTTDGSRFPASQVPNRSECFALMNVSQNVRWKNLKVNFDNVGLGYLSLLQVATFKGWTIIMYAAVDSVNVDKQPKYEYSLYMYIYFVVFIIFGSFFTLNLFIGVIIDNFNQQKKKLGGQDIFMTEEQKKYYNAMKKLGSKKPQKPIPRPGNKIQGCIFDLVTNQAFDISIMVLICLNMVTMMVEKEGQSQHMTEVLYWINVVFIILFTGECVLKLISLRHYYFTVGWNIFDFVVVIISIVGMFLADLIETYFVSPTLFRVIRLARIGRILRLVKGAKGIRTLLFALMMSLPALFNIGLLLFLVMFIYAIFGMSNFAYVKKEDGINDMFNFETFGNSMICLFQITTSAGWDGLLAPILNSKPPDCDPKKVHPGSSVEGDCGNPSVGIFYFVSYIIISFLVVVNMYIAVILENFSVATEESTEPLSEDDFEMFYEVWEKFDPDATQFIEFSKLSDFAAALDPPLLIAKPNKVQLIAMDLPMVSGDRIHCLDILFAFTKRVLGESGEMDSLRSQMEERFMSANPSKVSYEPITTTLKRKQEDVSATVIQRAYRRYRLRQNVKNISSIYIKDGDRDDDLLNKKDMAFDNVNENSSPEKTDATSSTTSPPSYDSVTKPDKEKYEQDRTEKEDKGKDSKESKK

| SMILES | IC50 |
| --- | --- |
| CN(c1ncc(Oc2cc(F)c(C(=O)NS(C)(=O)=O)cc2F)cc1Cl)C1CCOC1 (centres unmarked) [Example 139, 4-({5-chloro-6-[methyl(tetrahydrofuran-3-yl)amino]pyridin-3-yl}oxy)-2,5-difluoro-N-(methylsulfonyl)benzamide] | 2600 nM |
| CC(C)COc1ncc(Oc2cc(F)c(C(=O)NS(C)(=O)=O)cc2Cl)cc1Cl [Example 38, 5-chloro-4-[(5-chloro-6-isobutoxypyridin-3-yl)oxy]-2-fluoro-N-(methylsulfonyl)benzamide] | 7.5 nM |
| CN(c1ncc(Oc2cc(F)c(C(=O)NS(C)(=O)=O)cc2F)cc1Cl)C1CC1 [Example 116, 4-({5-chloro-6-[cyclopropyl(methyl)amino]pyridin-3-yl}oxy)-2,5-difluoro-N-(methylsulfonyl)benzamide] | 980 nM |
| CS(=O)(=O)NC(=O)c1cc(F)c(Oc2cnc(N[C@H]3CC[C@H](F)C3)c(Cl)c2)cc1F [Example 120, 4-[(5-chloro-6-{[(1S,3S)-3-fluorocyclopentyl]amino}pyridin-3-yl)oxy]-2,5-difluoro-N-(methylsulfonyl)benzamide] | 660 nM |
| CO[C@@H]1CCCN(c2ncc(Oc3cc(F)c(C(=O)NS(C)(=O)=O)cc3F)cc2Cl)C1 [Example 128, 4-({5-chloro-6-[(3R)-3-methoxypiperidin-1-yl]pyridin-3-yl}oxy)-2,5-difluoro-N-(methylsulfonyl)benzamide] | 2400 nM |
| CC(C)(C)Oc1ncc(Oc2cc(F)c(C(=O)NS(C)(=O)=O)cc2F)cc1Cl [Example 34, 4-[(6-tert-butoxy-5-chloropyridin-3-yl)oxy]-2,5-difluoro-N-(methylsulfonyl)benzamide] | 33 nM |

More lines, now with the values ahead:

| IC50 | SMILES |
| --- | --- |
| 170 nM | CN(c1ncc(Oc2cc(F)c(C(=O)NS(C)(=O)=O)cc2F)cc1Cl)C1CCC1 [Example 133, 4-({5-chloro-6-[cyclobutyl(methyl)amino]pyridin-3-yl}oxy)-2,5-difluoro-N-(methylsulfonyl)benzamide] |
| 31 nM | [2H]C([2H])([2H])C([2H])(Oc1ncc(Oc2cc(F)c(C(=O)NS(C)(=O)=O)cc2Cl)cc1Cl)C([2H])([2H])[2H] (single isomer, unassigned) [Example 42, 5-chloro-4-({5-chloro-6-[d7-propan-2-yloxy]pyridin-3-yl}oxy)-2-fluoro-N-(methylsulfonyl)benzamide] |
| 290 nM | CC(C)(F)c1ncc(Oc2cc(F)c(C(=O)NS(C)(=O)=O)cc2Cl)cc1Cl [Example 7, 5-Chloro-4-{[5-chloro-6-(1-fluoro-1-methylethyl)pyridin-3-yl]oxy}-2-fluoro-N-(methylsulfonyl)benzamide] |
| 11 nM | CC(Oc1ncc(Oc2cc(F)c(C(=O)NS(C)(=O)=O)cc2Cl)cc1Cl)C(F)(F)F (centres unmarked) [Example 43, 5-chloro-4-{[5-chloro-6-(2,2,2-trifluoro-1-methylethoxy)pyridin-3-yl]oxy}-2-fluoro-N-(methylsulfonyl)benzamide] |
| 150 nM | CC(C)Nc1ncc(Oc2cc(F)c(C(=O)NS(C)(=O)=O)cc2F)cc1Cl [Example 79, 4-{[5-chloro-6-(isopropylamino)pyridin-3-yl]oxy}-2,5-difluoro-N-(methylsulfonyl)benzamide] |
| 91 nM | CS(=O)(=O)NC(=O)c1cc(F)c(Oc2cnc(OCC3CC(F)(F)C3)c(Cl)c2)cc1F [Example 2, 4-({5-Chloro-6-[(3,3-difluorocyclobutyl)methoxy]pyridin-3-yl}oxy)-2,5-difluoro-N-(methylsulfonyl)benzamide] |
| 31 nM | CS(=O)(=O)NC(=O)c1cc(Cl)c(Oc2cnc(OCC(F)(F)C(F)F)c(C(F)(F)F)c2)cc1F [Example 105, 5-Chloro-2-fluoro-N-(methylsulfonyl)-4-(6-(2,2,3,3-tetrafluoropropoxy)-5-(trifluoromethyl)pyridin-3-yloxy)benzamide] |
| 25 nM | CC(C)Oc1ncc(Oc2cc(F)c(C(=O)NS(C)(=O)=O)cc2Cl)cc1Cl [Example 39, 5-chloro-4-[(5-chloro-6-isopropoxypyridin-3-yl)oxy]-2-fluoro-N-(methylsulfonyl)benzamide] |

Source: patent US8592629B2, “Sulfonamide derivatives as Nav 1.7 inhibitors” (Pfizer Limited, priority 2010, dated 2013)
